In PubChem BioAssay AID248 (DTP/NCI, 2004):
“And” between values parts separate entries of the source, which are not always exact repeats. Equal values may be shown once. Inconclusive results and toxic doses are left out. No stated cut-off is given here; in the data, active means T/C of 150% or more; inactive means T/C below 125%.

Tested on: L1210 leukemia ip in BDF1 mice, survival T/C
Assay: NCI In Vivo Anticancer Drug Screen. Data for tumor model L1210 Leukemia (intraperitoneal) in B6D2F1 (BDF1) mice
Details: endpoint: mean survival time, higher = longer survival
Procedure, shortened: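 In this screen, tumor-bearing mice given compound are compared to those given vehicle, and their survival values are reported as a treated-to-control quotient.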

[1] = dose: 100.0 mg/kg/injection, schedule: Q01DX009 (ip), vehicle: saline
[2] = dose: 200.0 mg/kg/injection, schedule: Q01DX009 (ip), vehicle: saline
[3] = dose: 400.0 mg/kg/injection, schedule: Q01DX009 (ip), vehicle: saline
[4] = dose: 100.0 mg/kg/injection, schedule: Q01DX009 (ip), vehicle: Klucel (hydroxypropylcellulose) (HPC)
[5] = dose: 200.0 mg/kg/injection, schedule: Q01DX009 (ip), vehicle: Klucel (hydroxypropylcellulose) (HPC)
[6] = dose: 100.0 mg/kg/injection, schedule: Q04DX003 (ip), vehicle: saline with Tween-80
[7] = dose: 200.0 mg/kg/injection, schedule: Q04DX003 (ip), vehicle: saline with Tween-80
[8] = dose: 400.0 mg/kg/injection, schedule: Q04DX003 (ip), vehicle: saline with Tween-80
[9] = dose: 100.0 mg/kg/injection, schedule: Q01DX001 (ip), vehicle: Klucel (hydroxypropylcellulose) (HPC)
[10] = dose: 200.0 mg/kg/injection, schedule: Q01DX001 (ip), vehicle: Klucel (hydroxypropylcellulose) (HPC)
[11] = dose: 50.0 mg/kg/injection, schedule: Q01DX009 (ip), vehicle: saline with Tween-80
[12] = dose: 100.0 mg/kg/injection, schedule: Q01DX009 (ip), vehicle: saline with Tween-80
[13] = dose: 200.0 mg/kg/injection, schedule: Q01DX009 (ip), vehicle: saline with Tween-80

Measured: T/C

C[N+]1(CCCl)CC[N+](C)(CCCl)CC1 (stereo unspecified)
inactive: dose: 100.0 mg/kg/injection, schedule: Q01DX001 (ip), vehicle: carboxymethylcellulose (CMC) 101 % of control | dose: 100.0 mg/kg/injection, schedule: Q01DX009 (ip), vehicle: carboxymethylcellulose (CMC) 97 % of control and 92 % of control | [1] 97 % of control | dose: 100.0 mg/kg/injection, schedule: Q04DX002 (ip), vehicle: carboxymethylcellulose (CMC) 97 % of control | dose: 100.0 mg/kg/injection, schedule: Q04DX002 (ip), vehicle: saline 112 % of control | dose: 100.0 mg/kg/injection, schedule: Q04DX003 (ip), vehicle: carboxymethylcellulose (CMC) 97 % of control | dose: 200.0 mg/kg/injection, schedule: Q01DX001 (ip), vehicle: carboxymethylcellulose (CMC) 105 % of control | dose: 200.0 mg/kg/injection, schedule: Q01DX009 (ip), vehicle: carboxymethylcellulose (CMC) 97 % of control and 100 % of control | [2] 101 % of control | dose: 200.0 mg/kg/injection, schedule: Q04DX002 (ip), vehicle: carboxymethylcellulose (CMC) 100 % of control and 103 % of control | dose: 200.0 mg/kg/injection, schedule: Q04DX002 (ip), vehicle: saline 105 % of control | dose: 200.0 mg/kg/injection, schedule: Q04DX003 (ip), vehicle: carboxymethylcellulose (CMC) 100 % of control | dose: 400.0 mg/kg/injection, schedule: Q01DX001 (ip), vehicle: carboxymethylcellulose (CMC) 97 % of control | dose: 400.0 mg/kg/injection, schedule: Q01DX009 (ip), vehicle: carboxymethylcellulose (CMC) 101 % of control and 91 % of control | [3] 101 % of control | dose: 400.0 mg/kg/injection, schedule: Q04DX002 (ip), vehicle: carboxymethylcellulose (CMC) 93 % of control | dose: 400.0 mg/kg/injection, schedule: Q04DX003 (ip), vehicle: carboxymethylcellulose (CMC) 103 % of control

NC(Cc1cnc(N=Nc2ccc(S(=O)(=O)N(CCCl)CCCl)cc2)[nH]1)C(=O)O (stereo unspecified)
inactive: dose: 50.0 mg/kg/injection, schedule: Q01DX009 (ip), vehicle: Klucel (hydroxypropylcellulose) (HPC) 93 % of control | [4] 90 % of control | [5] 97 % of control

CN(C)C(=S)Nc1ccccc1
inactive: [1] 114 % of control | dose: 130.0 mg/kg/injection, schedule: Q01DX009 (ip), vehicle: Klucel (hydroxypropylcellulose) (HPC) 98 % of control | [5] 103 % of control

O=C(NNC(=S)Nc1ccc(S(=O)(=O)N2CCCCC2)cc1)c1ccncc1
inactive: [4] 92 % of control | [5] 92 % of control | dose: 400.0 mg/kg/injection, schedule: Q01DX009 (ip), vehicle: Klucel (hydroxypropylcellulose) (HPC) 91 % of control

Cc1ccccc1NC(=O)CS
inactive: [6] 95 % of control | [7] 88 % of control

COc1cc(Cc2nccc3cc(OC)c(OC)cc23)c([N+](=O)[O-])cc1OC
inactive: dose: 100.0 mg/kg/injection, schedule: Q01DX001 (ip), vehicle: saline 102 % of control | dose: 100.0 mg/kg/injection, schedule: Q04DX003 (ip), vehicle: saline sonified 106 % of control | dose: 200.0 mg/kg/injection, schedule: Q01DX001 (ip), vehicle: saline 96 % of control | dose: 200.0 mg/kg/injection, schedule: Q04DX003 (ip), vehicle: saline sonified 89 % of control | dose: 300.0 mg/kg/injection, schedule: Q01DX001 (ip), vehicle: saline 96 % of control | dose: 400.0 mg/kg/injection, schedule: Q04DX003 (ip), vehicle: saline sonified 92 % of control

CC1(C)N=C(N)Nc2nnc(-c3ccc(Cl)cc3)n21
inactive: [6] 97 % of control | [7] 97 % of control | [8] 94 % of control

Oc1cccc2oc(=S)[nH]c12
inactive: dose: 25.0 mg/kg/injection, schedule: Q04DX003 (ip), vehicle: Klucel (hydroxypropylcellulose) (HPC) 106 % of control | dose: 50.0 mg/kg/injection, schedule: Q04DX003 (ip), vehicle: Klucel (hydroxypropylcellulose) (HPC) 92 % of control | dose: 100.0 mg/kg/injection, schedule: Q04DX003 (ip), vehicle: Klucel (hydroxypropylcellulose) (HPC) 103 % of control | [6] 95 % of control and 100 % of control | [7] 110 % of control

O=C(Nc1cccc(C(=O)Nc2cc(C3=NCCN3)cc(C3=NCCN3)c2)c1)Nc1cccc(C(=O)Nc2cc(C3=NCCN3)cc(C3=NCCN3)c2)c1
inactive: dose: 15.0 mg/kg/injection, schedule: Q01DX Z (ip), vehicle: methylcellulose (MC) 109 % of control | dose: 30.0 mg/kg/injection, schedule: Q01DX Z (ip), vehicle: methylcellulose (MC) 105 % of control | dose: 60.0 mg/kg/injection, schedule: Q01DX Z (ip), vehicle: methylcellulose (MC) 96 % of control

NC(=O)c1cc(NCCO)c([N+](=O)[O-])cc1[N+](=O)[O-]
inactive: [9] 104 % of control | [10] 100 % of control | dose: 400.0 mg/kg/injection, schedule: Q01DX001 (ip), vehicle: Klucel (hydroxypropylcellulose) (HPC) 96 % of control

C[C@]12CCCC[C@@H]1CC[C@@H]1[C@@H]2[C@@H](O)C[C@]2(C)[C@@H](O)CC[C@@H]12
inactive: [11] 98 % of control | [12] 90 % of control | [13] 95 % of control

CN(C)C=Nc1ccc(C(=O)OCCN(C)C)cc1
inactive: [11] 115 % of control | [12] 97 % of control | [13] 106 % of control

CCOC(=O)C1CCC(C(=O)OCC)N1Cc1ccccc1 (stereo unspecified)
inactive: [1] 101 % of control | [2] 104 % of control | [3] 108 % of control

O=C(O)c1ccc(NC(=O)c2ccc3ccccc3c2O)cc1
inactive: dose: 100.0 mg/kg/injection, schedule: Q01DX001 (ip), vehicle: saline with Tween-80 104 % of control | [12] 109 % of control | [6] 102 % of control | dose: 200.0 mg/kg/injection, schedule: Q01DX001 (ip), vehicle: saline with Tween-80 103 % of control | [13] 110 % of control | [7] 100 % of control | dose: 400.0 mg/kg/injection, schedule: Q01DX001 (ip), vehicle: saline with Tween-80 101 % of control | [8] 96 % of control

CC1(CCCOc2ccc(NC(=O)CBr)cc2)N=C(N)N=C(N)N1c1ccccc1 (stereo unspecified)
inactive: dose: 5.0 mg/kg/injection, schedule: Q01DX001 (ip), vehicle: saline 97 % of control | dose: 10.0 mg/kg/injection, schedule: Q01DX001 (ip), vehicle: saline 92 % of control | dose: 20.0 mg/kg/injection, schedule: Q01DX001 (ip), vehicle: saline 91 % of control | dose: 40.0 mg/kg/injection, schedule: Q01DX001 (ip), vehicle: saline 91 % of control | dose: 80.0 mg/kg/injection, schedule: Q01DX001 (ip), vehicle: saline 87 % of control

CC(=O)Oc1cc(-c2ccccc2)c(OC(C)=O)cc1-c1ccccc1
inactive: dose: 25.0 mg/kg/injection, schedule: Q01DX009 (ip), vehicle: water 96 % of control | dose: 50.0 mg/kg/injection, schedule: Q01DX009 (ip), vehicle: water 101 % of control | dose: 100.0 mg/kg/injection, schedule: Q01DX009 (ip), vehicle: water 94 % of control | dose: 200.0 mg/kg/injection, schedule: Q01DX009 (ip), vehicle: water 101 % of control | dose: 400.0 mg/kg/injection, schedule: Q01DX009 (ip), vehicle: water 100 % of control

COc1ccc(/C=C2/CSC/C(=C/c3ccc(OC)c(OC)c3)C2=O)cc1OC
inactive: dose: 100.0 mg/kg/injection, schedule: Q04DX003 (ip), vehicle: saline 103 % of control | [2] 86 % of control | dose: 200.0 mg/kg/injection, schedule: Q04DX003 (ip), vehicle: saline 94 % of control | dose: 400.0 mg/kg/injection, schedule: Q04DX003 (ip), vehicle: saline 94 % of control

COB(OC)C1CCCC1
inactive: [9] 92 % of control | [10] 95 % of control
